Each block holds one molecule with its values, some of them ahead of it.
Legend:
[1] = system: human bronchial smooth muscle; settings: cited from earlier work
[2] = cited from earlier work
[3] = system: human vascular smooth muscle preparations; settings: ref Papp et al., 2019; Danahay et al., 2020b; cited from earlier work
[4] = biological target: 5-HT2B (Homo sapiens, UniProt P41595); assay: SelectScreen cell-based GPCR assay, 5-HT2B; settings: 10 µM
From the text: (§1) Profiling of compound activity versus a select panel of diverse GPCRs was undertaken by ThermoFisher Scientific (United Kingdom) via their SelectScreen cell-based GPCR assay panel. Detailed experimental protocols on this assay platform can be found at (https://www.thermofisher.com/content/dam/LifeTech/migration/en/filelibrary/services/discovery-research/pdfs.par.36410.file.dat/sscg-brochure.pdf). Briefly these assays detect agonist or antagonist activity using cell lines with the GPCR of interest over-expressed, driving the expression of a reporter gene encompassing a mammalian-optimized Beta-lactamase. Test compounds are incubated with the specific cell lines at the defined final concentration for 5 or 16 h (depending on the cell line specifics) before quantification of effect.

[5] = biological target: delta opioid (Homo sapiens, UniProt P41143); assay: SelectScreen cell-based GPCR assay, delta opioid; settings: 10 µM
From the text: as §1

Chain of 5-HT2B (P41595 whole entry): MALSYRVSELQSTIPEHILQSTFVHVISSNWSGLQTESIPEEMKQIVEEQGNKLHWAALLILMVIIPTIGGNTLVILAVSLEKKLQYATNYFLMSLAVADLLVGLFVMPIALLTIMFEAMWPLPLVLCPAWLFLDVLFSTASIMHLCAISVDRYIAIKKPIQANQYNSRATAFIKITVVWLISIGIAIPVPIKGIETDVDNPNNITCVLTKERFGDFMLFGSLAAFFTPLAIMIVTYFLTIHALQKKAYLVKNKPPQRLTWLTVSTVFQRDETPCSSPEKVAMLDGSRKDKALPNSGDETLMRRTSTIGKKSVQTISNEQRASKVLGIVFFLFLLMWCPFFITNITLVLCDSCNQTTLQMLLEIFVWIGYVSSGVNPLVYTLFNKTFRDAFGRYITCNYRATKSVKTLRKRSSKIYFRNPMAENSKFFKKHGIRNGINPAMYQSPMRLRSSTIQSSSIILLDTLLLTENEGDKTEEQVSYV
Chain of delta opioid (P41143 whole entry): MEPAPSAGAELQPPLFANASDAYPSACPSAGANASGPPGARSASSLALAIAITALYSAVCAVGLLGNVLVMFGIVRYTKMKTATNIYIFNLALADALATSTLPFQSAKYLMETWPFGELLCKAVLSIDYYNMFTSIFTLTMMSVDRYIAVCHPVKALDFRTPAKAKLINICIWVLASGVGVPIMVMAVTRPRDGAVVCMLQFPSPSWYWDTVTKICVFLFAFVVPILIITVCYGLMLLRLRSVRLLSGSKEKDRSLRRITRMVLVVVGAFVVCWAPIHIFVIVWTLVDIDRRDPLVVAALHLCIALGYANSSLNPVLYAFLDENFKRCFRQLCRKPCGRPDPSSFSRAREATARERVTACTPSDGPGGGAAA

Molecule: ETX001
effect on freshly isolated human bronchial smooth muscle tone [1]: no effect
effect on lung function in vivo [2]: no effect

Molecule: CCc1c(C)nc(SCC(=O)Nc2nc(-c3ccc(OC)cc3)cs2)[nH]c1=O [T16Ainh-A01]
activity in human vascular smooth muscle preparations [3]: failed to show activity

inhibition of 5-HT2B [4]: ≥ 50%
inhibition of delta opioid [5]: ≥ 50%
Molecule: COc1ccccc1/C=N/NC(=O)COc1ccc(Cl)cc1C [Ani9]

— article PMC10025480 (Frontiers in Pharmacology, 2023)
